According to publication PMC2879362, “Design of Group IIA Secreted/Synovial Phospholipase A2 Inhibitors: An Oxadiazolone Derivative Suppresses Chondrocyte Prostaglandin E2 Secretion” (PLoS ONE, 2010):

What was measured:
[1] = system: IL-1β-stimulated PGE2 secretion in articular chondrocytes; test: IL-1β-stimulated PGE2 secretion in articular chondrocytes (EIA); format: cell-based, rabbit; details: C1 at 8 µM, IL-1β 1 ng/mL (data not shown)
Method: We tested the effect of C8 on the IL-1β-stimulated secretion of PGE2 in chondrocytes. PGE2 synthesis takes place mainly in response to cell activation by IL-1β, and its generation accounts for many of the actions induced by this cytokine. In vitro, IL-1β induces the expression of COX-2 by chondrocytes, which results in increased PGE2 production. PGE2 release thus represents a powerful IL-1β- and PLA2-dependent inflammatory marker in our cell model. Chondrocytes were treated for 20 h with IL-1β alone or 1 h after the addition of C8. […] In DMEM alone, at concentrations of 0.31-, 0.62-, 0.94-, and 1.24-µM, C8 decreased the production of PGE2 induced by IL-1β by 59-, 58-, 74-, and 80-%, respectively (Fig. 4A). In DMEM supplemented with 0.1% BSA, at concentrations of 0.31-, 0.62-, 0.94-, 1.24-, 2.48-, and 4.96-µM, C8 decreased the production of PGE2 induced by IL-1β by 31-, 30-, 45-, 43-, 81-, and 92-%, respectively (Fig. 4B). In DMEM supplemented with 2% FCS, at concentrations of 0.31-, 0.62-, 0.94-, 1.24-, 2.48-, and 4.96-µM, C8 decreased the production of PGE2 induced by IL-1β by 26-, 48-, 49-, 54-, 68-, and 68-%, respectively (Fig. 4C). […] The effect of C8 was then evaluated at the extreme concentrations (0.31- and 4.96-µM) in DMEM supplemented with 2% FCS and containing decreasing (1-, 0.5-, and 0.25-ng/mL) IL-1β concentrations (Table 3). The anti-IL-1β inhibitory effect of C8 at 0.31 µM increases when IL-1β concentration decreases. […] This is probably due to the fact that at 4.96 µM, the inhibitory effect of C8 on IL-1β-induced PGE2 production is maximal. […] Thus, C8, but not C1, decreases the IL-1β-stimulated PGE2 secretion in a dose-dependent manner in the three culture medium compositions used.
Articular chondrocytes were isolated from 5-week-old Fauve de Bourgogne female rabbits (CPA, Orleans, France) and cultured at the first passage in conditions avoiding cell dedifferentiation as previously described. Cells were cultured at 37°C in 12-well plates in Ham's F-12 medium containing 10% FCS, 20 IU/mL penicillin, and 20 µg/mL streptomycin (all from Invitrogen) until nearly confluent. Then medium was replaced with DMEM (Invitrogen) containing 20 IU/mL penicillin, and 20 µg/mL streptomycin and, if necessary, 0.1% fatty acid free BSA (Sigma) or 2% FCS. At this time the C8 compound dissolved in DMSO (Sigma) was added to the medium (the amount of DMSO was kept at 1‰ (v/v) in all the wells). 1 h after the addition of C8, IL-1β (PeproTech) was added to the medium. Consequently, chondrocytes were incubated for 20 h with IL-1β and for 21 h with C8.
20 h after the addition of IL-1β to the chondrocytes, culture media were collected, and aliquots were stored at −80°C until PGE2 and nitrite quantification. PGE2 concentration in culture media was determined by use of an enzyme immunoassay (EIA) kit (PGE2 EIA Kit-monoclonal; Cayman Chemical). Nitrite concentration was determined by a spectrophotometry method based on the Griess reaction. Briefly, 200 µL of culture medium or sodium nitrite (NaNO2, Merck) standard dilutions were mixed with 100 µL Griess reagent [0.5% (w/v) sulphanilic acid (Merck), 0.05% (w/v) N(1-naphtyl)ethylenediamine (Merck), 30% (v/v) acetic acid, 1.5 N HCl] and incubated for 10 min at 50°C. The absorbance was measured at 540 nm.

[2] = target: T1, porcine group IB PLA2 (pGIBPLA2) (Sus scrofa, UniProt P00592); test: In vitro fluorimetric PLA2 assay (β-py-C10-PG substrate); format: biochemical; details: 2 µM β-py-C10-PG, 6 ng/mL pancreatic PLA2
T1 construct: purchased Sigma
Method: (§1) The compounds C1-C8 were submitted to fluorimetric assay to determine their inhibitory potencies and selectivity towards human GIIAPLA2 (hGIIAPLA2) versus porcine group IB PLA2 (pGIBPLA2) (Table 2). GIBPLA2 is an enzyme of the same family as GIIAPLA2 (sPLA2) but is mainly involved in digestion of dietary phospholipids and is secreted by the pancreas. Lipophilicity parameters, log P, of these products are calculated by use of Rekker's fragmental data (Table 2). The molecules C1-C8 are specific inhibitors of hGIIAPLA2 because none inhibited pGIBPLA2 at the highest concentration tested (100 µM). Such selectivity implies that C1-C8 should not interfere with the digestion process.
(§2) Fatty-acid free BSA and pancreatic PLA2 were from Sigma. hGIIAPLA2 was prepared as previously described. The fluorescent substrate for PLA2 assay, 1-hexadecanoyl-2-(10-pyrenedecanoyl)-sn-glycero-3-phosphoglycerol, ammonium salt (β-py-C10-PG) was from Molecular Probes (Eugene). PLA2 activity was evaluated as previously described with β-py-C10-PG used as a substrate (2 µM final concentration). In a total volume of 1 mL, the standard reaction medium contained 50 mM Tris-HCl (pH 7.5), 500 mM NaCl, 1 mM EGTA, 2 µM β-py-C10-PG, 0.1% fatty-acid free BSA and 6 ng/mL pancreatic PLA2 or 1 ng/mL hGIIAPLA2. The fluorescence (λex = 342 nm and λem = 398 nm) of the enzymatic reaction medium was recorded for 3 min with use of a spectrofluorimeter LS 50 (Perkin-Elmer) equipped with a Xenon lamp. The reaction was initiated by the addition of CaCl2 (10 mM, final concentration). The increase in fluorescence was continuously recorded for 1 min, and PLA2 activity was calculated as previously described. When used, the inhibitor was added to the reaction medium after introduction of BSA. The activity is expressed in micromoles of fluorescent β-py-C10-PG hydrolyzed per min. The standard error of the mean of three independent experiments was less than 10%, which allows for the determination of the IC50 values (concentration of inhibitors producing 50% inhibition) of each compound.

[3] = target: T2, human GIIAPLA2 (hGIIAPLA2) (Homo sapiens, UniProt P14555); test: as above; format: biochemical; details: 2 µM β-py-C10-PG, 1 ng/mL hGIIAPLA2
T2 construct: hGIIAPLA2 was prepared as previously described [33]; made in house
T2 sequence (P14555 21-144): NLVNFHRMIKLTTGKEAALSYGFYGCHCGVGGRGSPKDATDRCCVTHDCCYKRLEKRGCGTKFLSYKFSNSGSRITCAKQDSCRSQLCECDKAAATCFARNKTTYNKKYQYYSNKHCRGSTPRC
Method: as §1, §2

[4] = system: atherosclerosis in apolipoprotein-E-null mice; set-up: method as in PMID 19129734; details: cited from earlier work

T1 sequence (P00592 23-146): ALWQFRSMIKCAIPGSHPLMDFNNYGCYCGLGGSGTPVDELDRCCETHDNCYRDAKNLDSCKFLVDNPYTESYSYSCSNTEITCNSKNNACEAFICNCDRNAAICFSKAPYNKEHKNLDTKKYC

SMILES	IC50 [2] [µM]	IC50 [3] [µM]	effect on PGE2 secretion stimulated by IL-1β [1]	effect on atherosclerosis [4]
O=c1[nH]c(Cc2ccc(OCCCCCn3ccc4ccccc43)cc2)no1 [C1, 3-{4-[5-(indol-1-yl)pentoxy]benzyl}-4H-1,2,4-oxadiazol-5-one]	> 100	5 ± 0.7	does not decrease	
COc1ccc2c(ccn2CCCCCOc2ccc(Cc3noc(=O)[nH]3)cc2)c1 [C5]	> 100	2.5 ± 0.5		
O=c1[nH]c(Cc2ccc(OCCCCCOc3ccc(-c4ccccc4)cc3)cc2)no1 [C6]	> 100	3 ± 0.2		
O=c1[nH]c(Cc2ccc(OCCCCCOc3ccccc3)cc2)no1 [C7]	> 100	35 ± 1.8		
CCc1c(C(=O)C(N)=O)c2c(OCC(=O)O)cccc2n1Cc1ccccc1 [Varespladib]				reduce atherosclerosis

Continued, in another order:

IC50 [2] [µM]	IC50 [3] [µM]	SMILES	effect on PGE2 secretion stimulated by IL-1β [1]	effect on atherosclerosis [4]
> 100	10 ± 1.5	O=c1[nH]c(Cc2ccc(OCCCCCOc3ccccc3-c3ccccc3)cc2)no1 [C2]		
> 100	5 ± 1.2	Cc1nc2cc(OCCCCCOc3ccc(Cc4noc(=O)[nH]4)cc3)ccc2s1 [C3]		
> 100	6.5 ± 1.8	O=c1[nH]c(Cc2ccc(OCCCCCn3ccc4cc(Cl)ccc43)cc2)no1 [C4]		
